The source of these data is ChEMBL document CHEMBL1148480, “Structure-activity studies of orexin a and orexin B at the human orexin 1 and orexin 2 receptors led to orexin 2 receptor selective and orexin 1 receptor preferring ligands” (J Med Chem, 2004).

Residues, ends and D or L forms follow the SMILES beside them.

A word on the EC50: it is the midpoint of the concentration-response curve. Higher therefore signals weaker potency.

The target of one experiment is T1, Orexin receptor type 2 (Homo sapiens, UniProt O43614).
T1 sequence (O43614 whole entry): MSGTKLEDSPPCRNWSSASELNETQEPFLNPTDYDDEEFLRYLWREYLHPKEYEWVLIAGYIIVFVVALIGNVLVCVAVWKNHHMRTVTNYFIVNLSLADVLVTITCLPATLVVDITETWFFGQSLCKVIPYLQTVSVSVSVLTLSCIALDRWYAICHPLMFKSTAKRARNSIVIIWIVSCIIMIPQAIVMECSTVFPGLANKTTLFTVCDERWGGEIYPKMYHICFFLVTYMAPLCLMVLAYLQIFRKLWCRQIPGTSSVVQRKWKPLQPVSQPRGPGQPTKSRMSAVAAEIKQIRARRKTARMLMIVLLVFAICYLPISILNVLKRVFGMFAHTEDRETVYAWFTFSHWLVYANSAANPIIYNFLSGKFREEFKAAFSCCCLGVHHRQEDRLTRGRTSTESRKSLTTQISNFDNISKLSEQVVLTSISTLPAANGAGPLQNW
The experiment is described as follows: Effective agonist concentration to the human Orexin receptor type 2 was determined using the Xlfit program. Format: functional.

Experiment [1] is described as follows: Ratio of orexin-1 receptor to orexin-2 receptor in human.

At Orexin receptor type 2, `CC[C@H](C)[C@H](NC(=O)CNC(=O)[C@H](C)NC(=O)[C@H](C)NC(=O)[C@H](Cc1c[nH]cn1)NC(=O)[C@H](CC(N)=O)NC(=O)CNC(=O)[C@H](C)NC(=O)CNC(=O)[C@H](Cc1c[nH]cn1)NC(=O)[C@H](CC(C)C)NC(=O)[C@H](CC(C)C)NC(=O)[C@H](CCC(=O)O)NC(=O)[C@H](Cc1ccc(O)cc1)NC(=O)[C@H](CC(C)C)NC(=O)[C@H](CCCN=C(N)N)NC(=O)[C@H](CS)NC(=O)[C@H](CO)NC(=O)[C@H](CS)NC(=O)[C@@H](NC(=O)[C@H](CCCCN)NC(=O)[C@H](CCC(N)=O)NC(=O)[C@H](CCCN=C(N)N)NC(=O)[C@H](CS)NC(=O)[C@@H](N)CS)[C@@H](C)O)C(=O)N[C@@H](CC(C)C)C(=O)N[C@H](C(=O)N[C@@H](CC(C)C)C(=O)O)[C@@H](C)O` (H-CCRQKTCSCRLYELLHGAGNHAAGILTL-OH) displayed an EC50 of 790 nM. In experiment [1], the Ratio was 1. On Orexin receptor type 2, `CC[C@H](C)[C@H](NC(=O)CNC(=O)[C@H](C)NC(=O)[C@H](C)NC(=O)[C@H](Cc1c[nH]cn1)NC(=O)[C@H](CC(N)=O)NC(=O)CNC(=O)[C@H](CO)NC(=O)[C@H](C)NC(=O)[C@H](CCC(N)=O)NC(=O)[C@H](CC(C)C)NC(=O)[C@H](CC(C)C)NC(=O)[C@H](CCCN=C(N)N)NC(=O)[C@H](CCC(N)=O)NC(=O)[C@H](CC(C)C)NC(=O)[C@H](CCCN=C(N)N)NC(=O)CNC(=O)[C@H](CCC(N)=O)NC(=O)[C@H](C)NC(=O)CN)C(=O)N[C@@H](CC(C)C)C(=O)N[C@H](C(=O)N[C@@H](CCSC)C(=O)O)[C@@H](C)O` (H-GAQGRLQRLLQASGNHAAGILTM-OH) had an EC50 of 830 nM. Also, the Ratio in experiment [1] amounted to 8.9.

As to `CC[C@H](C)[C@H](NC(=O)CNC(=O)[C@H](C)NC(=O)[C@H](C)NC(=O)[C@H](Cc1c[nH]cn1)NC(=O)[C@H](CC(N)=O)NC(=O)CNC(=O)[C@H](CO)NC(=O)[C@H](C)NC(=O)[C@H](CCC(N)=O)NC(=O)[C@H](CC(C)C)NC(=O)[C@H](CC(C)C)NC(=O)[C@H](CCCN=C(N)N)NC(=O)[C@H](CCC(N)=O)NC(=O)[C@H](CC(C)C)NC(=O)[C@H](CCCN=C(N)N)NC(=O)CNC(=O)[C@@H]1CCCN1C(=O)[C@H](CC(C)C)NC(=O)CN)C(=O)N[C@@H](CC(C)C)C(=O)N[C@H](C(=O)N[C@@H](CCSC)C(=O)O)[C@@H](C)O` (H-GLPGRLQRLLQASGNHAAGILTM-OH), the midpoint of the response at Orexin receptor type 2, the EC50, lay at 160 nM. Besides, the Ratio in experiment [1] was found to be 7.5.

`CC[C@H](C)[C@H](NC(=O)CNC(=O)[C@H](C)NC(=O)[C@H](C)NC(=O)[C@H](Cc1c[nH]cn1)NC(=O)[C@H](CC(N)=O)NC(=O)CNC(=O)[C@H](CO)NC(=O)[C@H](C)NC(=O)[C@H](CCC(N)=O)NC(=O)[C@H](CC(C)C)NC(=O)[C@H](CC(C)C)NC(=O)[C@H](CCCN=C(N)N)NC(=O)[C@H](CCC(N)=O)NC(=O)[C@H](CC(C)C)NC(=O)[C@H](CCCN=C(N)N)NC(=O)[C@H](C)NC(=O)[C@H](CCC(N)=O)NC(=O)[C@H](CC(C)C)NC(=O)CN)C(=O)N[C@@H](CC(C)C)C(=O)N[C@H](C(=O)N[C@@H](CCSC)C(=O)O)[C@@H](C)O` (H-GLQARLQRLLQASGNHAAGILTM-OH): at Orexin receptor type 2, a half-maximal effect (EC50) was put at 210 nM. The Ratio in experiment [1] was 11. `CC[C@H](C)[C@H](NC(=O)CNC(=O)[C@H](C)NC(=O)[C@H](C)NC(=O)[C@H](Cc1c[nH]cn1)NC(=O)[C@H](CC(N)=O)NC(=O)CNC(=O)[C@H](CO)NC(=O)[C@H](C)NC(=O)[C@H](CCC(N)=O)NC(=O)[C@H](CC(C)C)NC(=O)[C@H](CC(C)C)NC(=O)[C@H](CCCN=C(N)N)NC(=O)[C@H](CCC(N)=O)NC(=O)[C@H](CC(C)C)NC(=O)[C@H](CCCN=C(N)N)NC(=O)[C@@H]1CCCN1C(=O)[C@H](CCC(N)=O)NC(=O)[C@H](CC(C)C)NC(=O)CN)C(=O)N[C@@H](CC(C)C)C(=O)N[C@H](C(=O)N[C@@H](CCSC)C(=O)O)[C@@H](C)O` (H-GLQPRLQRLLQASGNHAAGILTM-OH) came in with an EC50 on Orexin receptor type 2 of 190 nM. In addition, the Ratio in experiment [1] was 23.5. `CC[C@H](C)[C@H](NC(=O)CNC(=O)[C@H](C)NC(=O)[C@H](C)NC(=O)[C@H](Cc1c[nH]cn1)NC(=O)[C@H](CC(N)=O)NC(=O)CNC(=O)[C@H](C)NC(=O)CNC(=O)[C@H](Cc1c[nH]cn1)NC(=O)[C@H](CC(C)C)NC(=O)[C@H](CC(C)C)NC(=O)[C@H](CCC(=O)O)NC(=O)[C@H](Cc1ccc(O)cc1)NC(=O)[C@H](CC(C)C)NC(=O)[C@H](CCCN=C(N)N)NC(=O)[C@H](CS)NC(=O)[C@H](CO)NC(=O)[C@H](CS)NC(=O)[C@@H](NC(=O)[C@H](CCCCN)NC(=O)[C@H](CCC(N)=O)NC(=O)[C@H](CCCN=C(N)N)NC(=O)[C@H](CS)NC(=O)[C@H](CS)NC(=O)[C@H](CC(=O)O)NC(=O)[C@@H]1CCCN1)[C@@H](C)O)C(=O)N[C@@H](CC(C)C)C(=O)N[C@H](C(=O)N[C@@H](CC(C)C)C(=O)O)[C@@H](C)O` (H-PDCCRQKTCSCRLYELLHGAGNHAAGILTL-OH) showed an EC50 at Orexin receptor type 2 of 400 nM. For the same compound, the Ratio in experiment [1] came out at 1.6. With `CC[C@H](C)[C@H](NC(=O)CNC(=O)[C@H](C)NC(=O)[C@H](C)NC(=O)[C@H](Cc1c[nH]cn1)NC(=O)[C@H](CC(N)=O)NC(=O)CNC(=O)[C@H](C)NC(=O)CNC(=O)[C@H](Cc1c[nH]cn1)NC(=O)[C@H](CC(C)C)NC(=O)[C@H](CC(C)C)NC(=O)[C@H](CCC(=O)O)NC(=O)[C@H](Cc1ccc(O)cc1)NC(=O)[C@H](CC(C)C)NC(=O)[C@H](CCCN=C(N)N)NC(=O)[C@H](CS)NC(=O)[C@@H](N)CO)C(=O)N[C@@H](CC(C)C)C(=O)N[C@H](C(=O)N[C@@H](CC(C)C)C(=O)O)[C@@H](C)O` (H-SCRLYELLHGAGNHAAGILTL-OH), the Ratio in experiment [1] was 2.3. For the compound `CC[C@H](C)[C@H](NC(=O)CNC(=O)[C@H](C)NC(=O)[C@H](C)NC(=O)[C@H](Cc1c[nH]cn1)NC(=O)[C@H](CC(N)=O)NC(=O)CNC(=O)[C@H](C)NC(=O)CNC(=O)[C@H](Cc1c[nH]cn1)NC(=O)[C@H](CC(C)C)NC(=O)[C@H](CC(C)C)NC(=O)[C@H](CCC(=O)O)NC(=O)[C@H](Cc1ccc(O)cc1)NC(=O)[C@H](CC(C)C)NC(=O)[C@H](CCCN=C(N)N)NC(=O)[C@H](CS)NC(=O)[C@H](CO)NC(=O)[C@H](CS)NC(=O)[C@@H](N)[C@@H](C)O)C(=O)N[C@@H](CC(C)C)C(=O)N[C@H](C(=O)N[C@@H](CC(C)C)C(=O)O)[C@@H](C)O` (H-TCSCRLYELLHGAGNHAAGILTL-OH), in experiment [1], the Ratio came out at 3.2. Still for that read-out and setting: the figure for `CC[C@H](C)[C@H](NC(=O)CNC(=O)[C@H](C)NC(=O)[C@H](C)NC(=O)[C@H](Cc1c[nH]cn1)NC(=O)[C@H](CC(N)=O)NC(=O)CNC(=O)[C@H](CO)NC(=O)[C@H](C)NC(=O)[C@H](CCC(N)=O)NC(=O)[C@H](CC(C)C)NC(=O)[C@H](CC(C)C)NC(=O)[C@H](CCCN=C(N)N)NC(=O)[C@@H]1CCCN1C(=O)[C@H](CC(C)C)NC(=O)[C@H](CCCN=C(N)N)NC(=O)CNC(=O)[C@H](CCC(N)=O)NC(=O)[C@H](CC(C)C)NC(=O)CN)C(=O)N[C@@H](CC(C)C)C(=O)N[C@H](C(=O)N[C@@H](CCSC)C(=O)O)[C@@H](C)O` (stereo in doubt; form 1) is 18.8. Consider `CC[C@H](C)[C@H](NC(=O)CNC(=O)[C@H](C)NC(=O)[C@H](C)NC(=O)[C@H](Cc1c[nH]cn1)NC(=O)[C@H](C)NC(=O)CNC(=O)[C@H](CO)NC(=O)[C@H](C)NC(=O)[C@H](CCC(N)=O)NC(=O)[C@H](CC(C)C)NC(=O)[C@H](CC(C)C)NC(=O)[C@H](CCCN=C(N)N)NC(=O)[C@H](CCC(N)=O)NC(=O)[C@H](CC(C)C)NC(=O)[C@H](CCCN=C(N)N)NC(=O)CNC(=O)[C@H](CCC(N)=O)NC(=O)[C@H](CC(C)C)NC(=O)CN)C(=O)N[C@@H](CC(C)C)C(=O)N[C@H](C(=O)N[C@@H](CCSC)C(=O)O)[C@@H](C)O` (stereo in doubt; form 2), for which the Ratio in experiment [1] came to 6.8. Turning to `CC[C@H](C)[C@H](NC(=O)CNC(=O)[C@H](C)NC(=O)[C@H](C)NC(=O)[C@H](Cc1c[nH]cn1)NC(=O)[C@H](CC(N)=O)NC(=O)CNC(=O)[C@H](CO)NC(=O)[C@H](C)NC(=O)[C@H](CCC(N)=O)NC(=O)[C@H](CC(C)C)NC(=O)[C@H](CC(C)C)NC(=O)[C@H](CCCN=C(N)N)NC(=O)[C@@H]1CCCN1C(=O)[C@H](CC(C)C)NC(=O)[C@H](CCCN=C(N)N)NC(=O)CNC(=O)[C@H](CCC(N)=O)NC(=O)[C@H](CC(C)C)NC(=O)CN)C(=O)N[C@@H](CC(C)C)C(=O)N[C@H](C(=O)N[C@@H](CCSC)C(=O)O)[C@@H](C)O` (stereo in doubt; form 2), in experiment [1], the Ratio stood at 15.
